We go through 21 compounds from US12344610B2, “APOL1 inhibitors and methods of use” (Maze Therapeutics, Inc., priority 2022, dated 2025).

Where two headings read alike, the source gives them in different places.

Format in all cases: cell-based
Common to all, as to details: geometric mean of at least 2 assay runs, † = single assay run

For assay [1], the system named is HEK293 cells overexpressing APOL1 G2. The experiment in a line: APOL1 G2 HEK293 cell rescue assay (reversal of cell death caused by overexpression of APOL1). In a few lines: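 Each compound tested in duplicate wells on one plate per run, with values usually the geometric mean across at least two runs on different days, occasionally from one run only. Read-out: concentration giving half-maximal rescue of APOL1 G2 overexpression-induced death of HEK293 cells.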

The subject of assay [2] is Trypanosoma brucei Lister 427 VSG221 with APOL1 G1 recombinant protein. The experiment in a line: APOL1 G1 trypanosome cell rescue assay (Example B5). In a few lines:
(§1)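 Recombinant APOL1 protein, dispensed from a 2 μg/mL stock, and 250 T. brucei per well were co-incubated with test compound (0.4% DMSO) for 20 h. Viability: CellTiter-Glo luminescence.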

The test system of assay [3] is Trypanosoma brucei Lister 427 VSG221 with APOL1 G0 recombinant protein. The experiment in a line: APOL1 G0 trypanosome cell rescue assay (Example B5). The essentials:
as §1

The mark [4] stands for this setting: Homo sapiens, HEK293, HEK293 overexpressing APOL1 G2.
Where [5] appears, read: Trypanosoma brucei, 20 h, read-out: APOL1 G1 Trypanosome Rescue EC50, Trypanosoma brucei Lister 427 VSG221 with APOL1 G1 recombinant protein, 20 hours, CellTiter-Glo.
[6] abbreviates: Trypanosoma brucei, 20 h, read-out: APOL1 G0 Trypanosome Rescue EC50, Trypanosoma brucei Lister 427 VSG221 with APOL1 G0 recombinant protein, 20 hours, CellTiter-Glo.
The mark [7] stands for this setting: read-out: APOL1 G1 Trypanosome Rescue EC50, Trypanosoma brucei Lister 427 VSG221 with APOL1 G1 recombinant protein, 20 hours, CellTiter-Glo.
The mark [8] stands for this setting: read-out: APOL1 G0 Trypanosome Rescue EC50, Trypanosoma brucei Lister 427 VSG221 with APOL1 G0 recombinant protein, 20 hours, CellTiter-Glo.

Usually EC50 stands for the concentration needed to bring the measured effect to its halfway point. As to `CC(c1ncc(OCCN2CCC3(CC2)C(=O)Nc2ccc(Cl)cc23)cn1)S(C)(=O)=O` (single isomer, unassigned) [Compound 2, 5-chloro-1′-[2-({2-[(1S) or (1R)-1-methanesulfonylethyl]pyrimidin-5-yl}oxy)ethyl]-1,2-dihydrospiro[indole-3,4′-piperidin]-2-one], the 50% effective concentration (EC50) in assay [1] (setting [4]) was determined as 134 nM; in assay [2] (setting [5]), 191 nM; in assay [3] (setting [6]), 192 nM.
For the compound `CC(c1ncc(OCCN2CCC3(CC2)C(=O)Nc2ccc(Cl)cc23)cn1)S(C)(=O)=O` (single isomer, unassigned) [Compound 3, 5-chloro-1′-[2-({2-[(1R) or (1S)-1-methanesulfonylethyl]pyrimidin-5-yl}oxy)ethyl]-1,2-dihydrospiro[indole-3,4′-piperidin]-2-one], the EC50 worked out at 142 nM in assay [1] (HEK293 overexpressing APOL1 G2), 323 nM in assay [2] (setting [7]) and 248 nM in assay [3] (setting [8]).
With `CC(O)c1ncc(OCCN2CCC3(CC2)C(=O)Nc2ccc(C#N)cc23)cc1C(F)(F)F` (single isomer, unassigned) [Compound 376, 1′-[2-({6-[(1S) or (1R)-1-hydroxyethyl]-5-(trifluoromethyl)pyridin-3-yl}oxy)ethyl]-2-oxo-1,2-dihydrospiro[indole-3,4′-piperidine]-5-carbonitrile], the EC50 in assay [1] (setting [4]) was 46.9 nM; in assay [2] (setting [7]) it was 115 nM; in assay [3] (setting [8]), 95.6 nM.
Turning to `CC(O)c1ncc(OCCN2CCC3(CC2)C(=O)Nc2ccc(C#N)cc23)cc1C(F)(F)F` (single isomer, unassigned) [Compound 377, 1′-[2-({6-(1S) or (1R)-1-hydroxyethyl]-5-(trifluoromethyl)pyridin-3-yl}oxy)ethyl]-2-oxo-1,2-dihydrospiro[indole-3,4′-piperidine]-5-carbonitrile], the EC50 in assay [1] (HEK293 overexpressing APOL1 G2) came out at 85.9 nM; in assay [2] (setting [7]), 271 nM; in assay [3] (setting [8]), 205 nM.
As for `CS(=O)(=O)C1(c2ncc(OCCN3CCC4(CC3)C(=O)Nc3ccc(C(F)F)cc34)cn2)CC1` [Compound 5, 5-(difluoromethyl)-1′-(2-{[2-(1-methanesulfonylcyclopropyl)pyrimidin-5-yl]oxy}ethyl)-1,2-dihydrospiro[indole-3,4′-piperidin]-2-one], the concentration for a half-maximal effect (EC50) in assay [1] (setting [4]) worked out at 213 nM; in assay [2] (setting [5]), 171 nM; in assay [3] (setting [6]), 150 nM.
On to `CS(=O)(=O)C1(c2ncc(OCCN3CCC4(CC3)C(=O)Nc3ccc(OC(F)F)cc34)cn2)CC1` [Compound 6, 5-(difluoromethoxy)-1′-(2-{[2-(1-methanesulfonylcyclopropyl)pyrimidin-5-yl]oxy}ethyl)-1,2-dihydrospiro[indole-3,4′-piperidin]-2-one], for which the results for the EC50 in assay [1] (setting [4]), in assay [2] (setting [5]) and in assay [3] (setting [6]) were 121 nM, 470 nM and 381 nM, respectively.
As for `O=C1CCc2cc(OCCN3CCC4(CC3)C(=O)Nc3ccc(Cl)cc34)ccc2N1` [Compound 82, 5-chloro-1′-{2-[(2-oxo-1,2,3,4-tetrahydroquinolin-6-yl)oxy]ethyl}-1,2-dihydrospiro[indole-3,4′-piperidin]-2-one], the EC50 in assay [1] (setting [4]) turned out to be 72.2 nM; in assay [2] (setting [5]), 344 nM; in assay [3] (setting [6]), 254 nM.
For `CS(=O)(=O)C1(c2c(F)cc(OCCN3CCC4(CC3)C(=O)Nc3ccc(C#N)cc34)cc2F)COC1` [Compound 84, 1′-{2-[3,5-difluoro-4-(3-methanesulfonyloxetan-3-yl)phenoxy]ethyl}-2-oxo-1,2-dihydrospiro[indole-3,4′-piperidine]-5-carbonitrile] the same measures were 64.9 nM, 144 nM and 101 nM.
As to `O=C1Nc2ccc(Cl)cc2C12CCN(CCOc1ccc3c(cnn3[C@H]3C[C@@H](O)C3)c1)CC2` [Compound 85, 5-chloro-1′-[2-({1-[(cis)-3-hydroxycyclobutyl]-1H-indazol-5-yl}oxy)ethyl]-1,2-dihydrospiro[indole-3,4′-piperidin]-2-one], the 50% effective concentration (EC50) in assay [1] (setting [4]) worked out at 70.3 nM; in assay [2] (setting [5]) it was 190 nM; in assay [3] (setting [6]) it was 115 nM.
For `O=C1Nc2ccc(Cl)cc2C12CCN(CCOc1ccc3c(cnn3[C@H]3C[C@H](O)C3)c1)CC2` [Compound 86, 5-chloro-1′-[2-({1-[(trans)-3-hydroxycyclobutyl]-1H-indazol-5-yl}oxy)ethyl]-1,2-dihydrospiro[indole-3,4′-piperidin]-2-one] the same measures were 46.5 nM, 137 nM and 96.4 nM.
On to `O=C1Nc2ccc(Cl)cc2C12CCN(CCOc1ccc3[nH]ncc3c1)CC2` [Compound 87, 5-chloro-1′-[2-(2H-indazol-5-yloxy)ethyl]-1,2-dihydrospiro[indole-3,4′-piperidin]-2-one], for which the EC50 in assay [1] (setting [4]) is 103 nM; in assay [2] (setting [5]) it was 383 nM; in assay [3] (setting [6]), 268 nM.
For `Cn1c(=O)[nH]c2cc(OCCN3CCC4(CC3)C(=O)Nc3ccc(Cl)cc34)ccc21` [Compound 88, 5-chloro-1′-{2-[(1-methyl-2-oxo-2,3-dihydro-1H-1,3-benzodiazol-5-yl)oxy]ethyl}-1,2-dihydrospiro[indole-3,4′-piperidin]-2-one] the same measures were 121 nM, 561 nM and 451 nM.
For the compound `CS(=O)(=O)c1c(F)cc(OCCN2CCC3(CC2)C(=O)Nc2ccc(Cl)cc23)cc1F` [Compound 89, 5-chloro-1′-[2-(3,5-difluoro-4-methanesulfonylphenoxy)ethyl]-1,2-dihydrospiro[indole-3,4′-piperidin]-2-one], the half-maximal effective concentration (EC50) in assay [1] (setting [4]) was found to be 55.7 nM; in assay [2] (setting [5]), 114 nM; in assay [3] (setting [6]), 101 nM.
For `CS(=O)(=O)c1c(F)cc(OCCN2CCC3(CC2)C(=O)Nc2ccc(C#N)cc23)cc1F` [Compound 90, 1′-[2-(3,5-difluoro-4-methanesulfonylphenoxy)ethyl]-2-oxo-1,2-dihydrospiro[indole-3,4′-piperidine]-5-carbonitrile], the concentration giving a half-maximal response (EC50) was 151 nM in assay [1] (setting [4]), 679 nM in assay [2] (setting [5]) and 546 nM in assay [3] (setting [6]).
Turning to `COC(=O)C1(S(=O)(=O)c2ccc(OCCN3CCC4(CC3)C(=O)Nc3ccc(Cl)cc34)cc2)CC1` [Compound 91, methyl 1-[4-(2-{5-chloro-2-oxo-1,2-dihydrospiro[indole-3,4′-piperidin]-1′-yl}ethoxy)benzenesulfonyl]cyclopropane-1-carboxylate], the EC50 was 24.5 nM in assay [1] (setting [4]), 82.7 nM in assay [2] (setting [5]) and 54.6 nM in assay [3] (setting [6]).
In the case of `CC1(S(=O)(=O)c2ccc(OCCN3CCC4(CC3)C(=O)Nc3ccc(Cl)cc34)cc2)COC1` [Compound 92, 5-chloro-1′-(2-{4-[(3-methyloxetan-3-yl)sulfonyl]phenoxy}ethyl)-1,2-dihydrospiro[indole-3,4′-piperidin]-2-one], the EC50 in assay [1] (setting [4]) was determined as 51.5 nM; in assay [2] (setting [5]), 99.3 nM; in assay [3] (setting [6]), 84.4 nM.
For `CC1(S(=O)(=O)c2ccc(OCCN3CCC4(CC3)C(=O)Nc3ccc(C#N)cc34)cc2)COC1` [Compound 93, 1′-(2-{4-[(3-methyloxetan-3-yl)sulfonyl]phenoxy}ethyl)-2-oxo-1,2-dihydrospiro[indole-3,4′-piperidine]-5-carbonitrile] the same measures were 90.9 nM, 264 nM and 156 nM.
For `CS(=O)(=O)N1CCc2cc(OCCN3CCC4(CC3)C(=O)Nc3ccc(Cl)cc34)ccc2C1` [Compound 94, 5-chloro-1′-{2-[(2-methanesulfonyl-1,2,3,4-tetrahydroisoquinolin-6-yl)oxy]ethyl}-1,2-dihydrospiro[indole-3,4′-piperidin]-2-one], the figures for the EC50 in assay [1] (setting [4]), in assay [2] (setting [5]) and in assay [3] (setting [6]) were 140 nM, 424 nM and 403 nM, respectively.
Consider `CN1C(=O)CCc2cc(OCCN3CCC4(CC3)C(=O)Nc3ccc(C#N)cc34)ccc21` [Compound 95, 1′-{2-[(1-methyl-2-oxo-1,2,3,4-tetrahydroquinolin-6-yl)oxy]ethyl}-2-oxo-1,2-dihydrospiro[indole-3,4′-piperidine]-5-carbonitrile], for which the results for the EC50 in assay [1] (setting [4]), in assay [2] (setting [5]) and in assay [3] (setting [6]) were 246 nM, 703 nM and 592 nM, respectively.
For `CC(C)N1C(=O)CCc2cc(OCCN3CCC4(CC3)C(=O)Nc3ccc(C#N)cc34)ccc21` [Compound 96, 2-oxo-1′-(2-{[2-oxo-1-(propan-2-yl)-1,2,3,4-tetrahydroquinolin-6-yl]oxy}ethyl)-1,2-dihydrospiro[indole-3,4′-piperidine]-5-carbonitrile] the same measures were 50.5 nM, 143 nM and 122 nM.
For `CC(C)N1C(=O)CCc2cc(OCCN3CCC4(CC3)C(=O)Nc3ccc(Cl)cc34)ccc21` [Compound 97, 5-chloro-1′-(2-{[2-oxo-1-(propan-2-yl)-1,2,3,4-tetrahydroquinolin-6-yl]oxy}ethyl)-1,2-dihydrospiro[indole-3,4′-piperidin]-2-one] the same measures were 44.6 nM, 98.4 nM and 99 nM.
